Results: patent publication US10711242B2, “Apparatus and methods for controlling cellular development” (The Board of Trustees of the Leland Stanford Junior …, priority 2008, dated 2020)

Tests used:
ChR2-ESC-derived neurons = experiment: Patch-clamp recording of excitatory postsynaptic currents in ChR2-ESC-derived neurons; assay type: cell-based, mouse; conditions: differentiation day 28
Text: (§1) We first verified that ChR2-ESCs were capable of neural lineage differentiation, using a retinoic acid-based neural differentiation protocol (FIG. 8c). At differentiation day 8, 40±10% of the cells expressed the neural lineage marker nestin. By day 14, a dense network of β-3-tubulin-positive ESC-derived immature neurons could be detected, followed by expression of the mature neuronal cytoskeletal protein MAP2 and the vesicular glutamate transporter II (vGlutll).
Neuronal differentiation was performed as previously described, with modifications. ESCs were plated on matrigel-coated dishes in embryoid body stage in complete ESC medium (see above). […]
For acute slice electrophysiological experiments, 1 week post cell transplantation, 250 μm cortical slices were prepared in ice-cold cutting buffer (64 mM NaCl, 25 mM NaHCO3, 10 mM glucose, 120 mM sucrose, 2.5 mM KCl, 1.25 mM NaH2PO4, 0.5 mM CaCl2 and 7 mM MgCl2, equilibrated with 95% O2/5% CO2) using a vibratome (VT 1000 S; Leica). […] Images were recorded with a CCD camera (Retiga Exi, Qimaging) by Qimaging software. […] Membrane currents were measured with the patch-clamp technique in whole-cell mode using Axon Multiclamp 700B (Axon Instruments) amplifiers. […] Through a 20× objective lens, power density of the blue light was 8-12 mW/mm^2, measured by power meter (Newport). […]

ChR2-ESCs = experiment: Retinoic acid-based neural differentiation of ChR2-ESCs, nestin expression; assay type: cell-based, mouse; conditions: differentiation day 8; retinoic acid-based neural differentiation protocol
Text: as §1
Neuronal differentiation was performed as previously described, with modifications. ESCs were plated on matrigel-coated dishes in embryoid body stage in complete ESC medium (see above). 24 hours later, medium was changed to ESC medium lacking LIF and including 5 μM retinoic acid, and changed every second day for 5 days. As a second differentiation step, cells were incubated with neural expansion medium for 7 days consisting of N2 supplement, SHH (50 ng/ml), FGF-8b (100 ng/ml), bFGF (10 ng/ml) and ascorbic acid (200 μM, Sigma) in DMEM/F12 and changed every two days. Thereafter cells were cultured in N2 and ascorbic acid in DMEM/F12.
Cells were fixed with 4% paraformaldehyde in PBS for 30 min at room temperature. Fixation was stopped by washing cells three times with 0.1M glycine/PBS. Cells were permeabilized and blocked (4% BSA/0.4% saponin/PBS) for 30 min and incubated in primary antibody solution at 4° C. overnight. […]

| Compound | block of excitatory postsynaptic currents (ChR2-ESC-derived neurons) | cells expressing the neural lineage marker nestin (ChR2-ESCs) [%] |
| --- | --- | --- |
| N#Cc1cc2[nH]c(=O)c(=O)[nH]c2cc1[N+](=O)[O-] [CNQX] | blocked | – |
| NC(CCCP(=O)(O)O)C(=O)O [D-AP5] | blocked | – |
| CC1=C(/C=C/C(C)=C/C=C/C(C)=C/C(=O)O)C(C)(C)CCC1 [RA, retinoic acid] | – | 40±10 |
